We go through one compound from PMC5500234 (Chemistry (Weinheim an der Bergstrasse, Germany), 2016).

The target of the assay is LeuT (bacterial leucine transporter) (Aquifex aeolicus, UniProt O67854). Put plainly: scintillation proximity assay. In kind it is binding. Conditions: labelled compound; room temperature, […] days; DDM or MNA-C12/C13/C14. (In general: SPA uses beads or plates that emit light when radiolabelled molecules are held near them.)

Each structure is given as a SMILES string.

`CC(C)C[C@H](N)C(=O)O` [[3H]-leucine]: the “scintillation proximity assay (SPA), radioligand binding” value is “measuring the ability to bind [^3H]-leucine via scintillation proximity assay (SPA)”.
